Holding throughout (assay type): cell-based, human
The test system of experiment [1] is H2009. The experiment can be described thus: Cell viability dose-response, H2009. The settings on record: for IC50: NCI-H2009. In a few lines: (§1)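 IC50 values derive from 12-point, 3-fold dilution curves starting at 50 micromolar, run in duplicate. ATP content was read by CellTiter-Glo after 4 days of compound treatment. Cells were plated at 15% confluence in RPMI-1640 containing 5% FBS and 2 mM L-glutamine.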

Experiment [2] concerns HCC44. Put plainly: Cell viability dose-response, HCC44. The settings on record: for AC50: 12-point dose-response starting at 50 micromolar. The gist of the method:
as §1

The test system of experiment [3] is H2122. Put plainly: Cell viability dose-response, H2122. The settings on record: for AC50: 12-point dose-response starting at 50 micromolar. The gist of the method:
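Viability read as total ATP (Cell Titer Glo) following 4 days' compound exposure, with IC50 derived from dose-response curves. Duplicate 12-point series, top concentration 50 micromolar with 3-fold steps, on cells seeded at 15% confluence in RPMI-1640, 5% FBS, 2 mM L-glutamine.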

Setting [4] is: Homo sapiens, NCI-H2009, Table 8, 12-point dose-response starting at 50 micromolar.
The mark [5] stands for this setting: Homo sapiens, NCI-H2122, Table 8.
The mark [6] stands for this setting: Homo sapiens, 12-point dose-response starting at 50 micromolar, 3-fold increments, in duplicate, read-out: toxicity data, H2009.
[7] abbreviates: Homo sapiens, HCC44, 12-point dose-response starting at 50 micromolar, 3-fold increments, in duplicate, read-out: toxicity data, HCC44.
The mark [8] stands for this setting: Homo sapiens, NCI-H2122, 12-point dose-response starting at 50 micromolar, 3-fold increments, in duplicate, read-out: toxicity data, H2122.
The mark [9] stands for this setting: Homo sapiens, NCI-H2122, Table 9, competitor, read-out: IC50 to H2122 cells.
The mark [10] stands for this setting: Homo sapiens, Tables 3 and 4, read-out: IC50 (uM) vs indicated non-small cell lung cancer cell line H2009.
The mark [11] stands for this setting: Homo sapiens, HCC44, Tables 3 and 4, read-out: IC50 (uM) vs indicated non-small cell lung cancer cell line HCC44.
Setting [12] is: Homo sapiens, NCI-H2122, Tables 3 and 4, read-out: IC50 (uM) vs indicated non-small cell lung cancer cell line H2122.

Molecules are shown by their SMILES. Where two headings read alike, the source gives them in different places.

Broadly, the AC50 is the midpoint of the concentration-response curve, whichever way the signal moves.

`O=c1c(-c2ccc(F)cc2F)coc2cc(OCc3cnn(-c4ccccc4)c3)ccc12` [SW208760-1]: the AC50 in experiment [1] (setting [4]) turned out to be 20.7 µM; in experiment [2] (Homo sapiens, HCC44, Table 8), 49.5 µM; in experiment [3] (setting [5]), 0.11 µM.
For `O=c1c(Oc2ccc(F)cc2)coc2cc(OCc3cnn(-c4ccccc4)c3)ccc12` [SW 208591-1], the concentration at half-maximal activity (AC50) stood at 16 µM in experiment [1] (setting [4]); 0.07 µM in experiment [2] (Homo sapiens, HCC44, Table 8); 0.15 µM in experiment [3] (setting [5]).
The corresponding values for `O=c1c(Oc2cccc(Cl)c2)coc2cc(OCc3cnn(-c4ccccc4)c3)ccc12` [SW 208594-1] are 16.5 µM, 0.08 µM and 0.22 µM.
In the case of `COc1ccc(CNC(=O)c2ccc(Cl)cc2)cc1` [SW208464-1-A], the IC50 in experiment [1] (setting [6]), in experiment [2] (setting [7]) and in experiment [3] (setting [8]) was at least 49.5 µM throughout.
As for `O=c1c(Oc2ccccc2F)coc2cc(OCc3cnn(-c4ccccc4)c3)ccc12` [SW043139-2-A], the AC50 in experiment [1] (Table 8, 12-point dose-response starting at 50 micromolar) stood at 15.9 µM; in experiment [2] (Table 8), 49.5 µM; in experiment [3] (Table 8) it was 0.292 µM.
Turning to `COc1ccc(CCNC(=O)N(C)C(=O)c2ccc(C(=O)c3ccccc3)cc2)cc1` [SW208566-1-A], the results for the IC50 in experiment [1] (setting [6]), in experiment [2] (setting [7]) and in experiment [3] (setting [8]) were 10.3 µM, 7.76 µM and 6.15 µM, respectively.
As for `c1ccc(-n2cc(COc3ccc4cc(OCc5cnn(-c6ccccc6)c5)ccc4c3)cn2)cc1` [SW 208630-1], the AC50 in experiment [1] (setting [4]) is 49.5 µM; in experiment [2] (Homo sapiens, HCC44, Table 8), 49.5 µM; in experiment [3] (setting [5]) it was at least 49.5 µM.
For the compound `COc1ccc(CCCNC(=O)c2ccc(Cl)cc2)cc1` [SW208462-1-A], the IC50 in experiment [1] (setting [6]), in experiment [2] (setting [7]) and in experiment [3] (setting [8]) was at least 49.5 µM each time.
As to `COc1ccc(CCNC(=O)NC(=O)c2ccc(C(=O)Nc3ccc(OC)cc3)cc2)cc1` [SW208411-1-A], the IC50 in experiment [1] (setting [6]), in experiment [2] (setting [7]) and in experiment [3] (setting [8]) was at least 49.5 µM throughout.
Take `COc1ccc(CCN(C)C(=O)N(C)C(=O)c2ccc(C(=O)c3ccccc3)cc2)cc1` [SW208567-1-A]: the IC50 in experiment [1] (setting [6]) turned out to be 16.5 µM; in experiment [2] (setting [7]), 8 µM; in experiment [3] (setting [8]) it was 15.7 µM.
For the compound `COc1ccc(CCNC(=O)NC(=O)c2ccc(C(N)c3ccccc3)cc2)cc1` (stereo not drawn) [SW208564-1-A], the IC50 in experiment [1] (setting [6]) came out at 5.62 µM; in experiment [2] (setting [7]), 0.06 µM; in experiment [3] (setting [8]), 0.32 µM.
`COc1ccc(CCNC(=O)NC(=O)c2ccc(COc3ccccc3)cc2)cc1` [SW208458-1-A]: the IC50 was determined as 0.099 µM in experiment [1] (setting [6]), 0.008 µM in experiment [2] (setting [7]), 0.01 µM in experiment [3] (setting [8]) and 0.00425 µM in experiment [3] (setting [9]).
As to `COc1ccc(CCNC(=O)NC(=O)c2ccc(Oc3ccccc3)cc2)cc1` [SW208456-1-A], the results for the IC50 in experiment [1] (setting [6]), in experiment [2] (setting [7]) and in experiment [3] (setting [8]) were at least 49.5 µM, 0.022 µM and 0.031 µM, respectively.
In the case of `O=c1c(-c2ccc(O)cc2)coc2cc(OCc3cnn(-c4ccccc4)c3)ccc12` [SW208757-1], the AC50 in experiment [1] (setting [4]) was 5.63 µM; in experiment [2] (Homo sapiens, HCC44, Table 8), 49.5 µM; in experiment [3] (setting [5]), at least 49.5 µM.
Regarding `O=C(Nc1nccs1)c1ccc(C(=O)c2ccccc2)cc1` [SW208771-1], the results for the IC50 in experiment [1] (setting [10]), in experiment [2] (setting [11]) and in experiment [3] (setting [12]) were 49.5 µM, 8.43 µM and 32.9 µM, respectively.
For the compound `COc1ccc(CCNC(=O)NC(=O)c2ccc(C(O)c3ccccc3)cc2)cc1` (stereo not drawn) [SW208460-1-A], the IC50 in experiment [1] (setting [6]) is at least 49.5 µM; in experiment [2] (setting [7]), 0.084 µM; in experiment [3] (setting [8]), 0.097 µM; in experiment [3] (setting [9]), 0.0456 µM.
Take `COC(=O)c1ccc(C(=O)NC(=O)NCCc2ccc(OC)cc2)cc1` [SW208390-1-A]: the IC50 in experiment [1] (setting [6]), in experiment [2] (setting [7]) and in experiment [3] (setting [8]) was at least 49.5 µM in each case.
Turning to `COc1ccc(CCCCC(=O)Nc2ccc(C(=O)c3ccccc3)cc2)cc1` [SW208480-1-A], the IC50 in experiment [1] (setting [6]) is at least 49.5 µM; in experiment [2] (setting [7]), 1.41 µM; in experiment [3] (setting [8]), 2.51 µM.
For the compound `Cc1ccc(/C=C/c2coc3cc(OCc4cnn(-c5ccccc5)c4)ccc3c2=O)cc1` [SW208758-1], the AC50 was 16.5 µM in experiment [1] (setting [4]); 49.5 µM in experiment [2] (Homo sapiens, HCC44, Table 8); at least 49.5 µM in experiment [3] (setting [5]).
As to `O=c1ccoc2cc(OCc3cnn(-c4ccccc4)c3)ccc12` [SW 208629-1], the AC50 was 49.5 µM in experiment [1] (setting [4]); 49.5 µM in experiment [2] (Homo sapiens, HCC44, Table 8); at least 49.5 µM in experiment [3] (setting [5]).
For the compound `O=C(Nc1nc2ccccc2[nH]1)c1ccc(C(=O)c2ccccc2)cc1` [SW208653-1], the IC50 was determined as 1.8 µM in experiment [1] (setting [10]), 3.63 µM in experiment [2] (setting [11]), 0.0383 µM in experiment [3] (setting [9]) and 0.042 µM in experiment [3] (setting [12]).
With `COc1ccc(CCNC(=O)NC(=O)c2ccc(C(=O)N(C)C)cc2)cc1` [SW208455-1-A], the IC50 in experiment [1] (setting [6]) is 16.5 µM; in experiment [2] (setting [7]) it was at least 49.5 µM; in experiment [3] (setting [8]), at least 49.5 µM; in experiment [3] (setting [9]) it was 0.8 µM.
Regarding `Cn1c(NC(=O)c2ccc(C(=O)c3ccccc3)cc2)nc2ccccc21` [SW208770-1], the IC50 came to 3.06 µM in experiment [1] (setting [10]), 12.7 µM in experiment [2] (setting [11]) and 31.4 µM in experiment [3] (setting [12]).
For `O=c1c(-c2ccc(Cl)cc2)coc2cc(OCc3cnn(-c4ccccc4)c3)ccc12` [SW208738], the AC50 in experiment [1] (setting [4]) was 49.5 µM; in experiment [2] (Homo sapiens, HCC44, Table 8) it was 49.5 µM; in experiment [3] (setting [5]), at least 49.5 µM.
`Cc1cccc(C(=O)c2ccc(C(=O)NC(=O)NCCc3ccc(O)cc3)cc2)c1` [SW208582-1-A]: the IC50 amounted to 0.5 µM in experiment [1] (setting [6]), 1.53 µM in experiment [2] (setting [7]), 2.73 µM in experiment [3] (setting [8]) and 0.8 µM in experiment [3] (setting [9]).
For `O=c1c(C2CC2)coc2cc(OCc3cnn(-c4ccccc4)c3)ccc12` [SW208766-1], the half-maximal activity concentration (AC50) was found to be 49.5 µM in experiment [1] (setting [4]); 49.5 µM in experiment [2] (Homo sapiens, HCC44, Table 8); 16.5 µM in experiment [3] (setting [5]).
As to `COc1cc2sc(NC(=O)c3ccc(C(=O)c4ccccc4)cc3)nc2cc1Br` [SW 208237], the IC50 came to 6.9 µM in experiment [1] (setting [10]), 6.5 µM in experiment [2] (setting [11]) and 0.61 µM in experiment [3] (setting [12]).
Regarding `O=C(Nc1nc2ccc(OCCCBr)cc2s1)c1ccc(C(=O)c2ccccc2)cc1` [SW 208235], the IC50 is 49.5 µM in experiment [1] (setting [10]), 49.5 µM in experiment [2] (setting [11]) and at least 49.5 µM in experiment [3] (setting [12]).
For `COc1ccc(CCNC(=O)NC(=O)c2cccc(-c3ccccc3)c2)cc1` [SW208394-1-A], the IC50 in experiment [1] (setting [6]), in experiment [2] (setting [7]) and in experiment [3] (setting [8]) was at least 49.5 µM in each case.
As to `O=c1c(Cc2ccccc2)coc2cc(OCc3cnn(-c4ccccc4)c3)ccc12` [SW208769-1], the AC50 in experiment [1] (setting [4]) was 49.5 µM; in experiment [2] (Homo sapiens, HCC44, Table 8) it was 3.18 µM; in experiment [3] (setting [5]) it was 0.027 µM.
The corresponding values for `O=c1c(-c2cc(C(F)(F)F)cc(C(F)(F)F)c2)coc2cc(OCc3cnn(-c4ccccc4)c3)ccc12` [SW208763-1] are 3.26 µM, 1.36 µM and 0.08 µM.
In the case of `O=C(NCCc1ccc(O)cc1)NC(=O)c1ccc(OCc2ccccc2)cc1` [SW208524-1-A], the IC50 in experiment [1] (setting [6]) was 0.01 µM; in experiment [2] (setting [7]), 0.01 µM; in experiment [3] (setting [8]), 0.02 µM.
For `COc1ccc(CCNC(=O)NC(=O)c2ccc(OCc3ccccc3)cc2)cc1` [SW208457-1-A], the IC50 in experiment [1] (setting [6]) was at least 49.5 µM; in experiment [2] (setting [7]) it was 0.023 µM; in experiment [3] (setting [8]), 0.031 µM.
For `C#CCOc1ccc(C(=O)c2ccc(NC(=O)C(=O)NC(C)Cc3ccc(OC)cc3)cc2)cc1` (stereo not drawn) [SW208217-1-A] the same measures were 12.3 µM, at least 49.5 µM and at least 49.5 µM.
For `COc1ccc(CCNC(=O)NC(=O)c2cccc(OC)c2)cc1` [SW208403-1-A], the results for the IC50 in experiment [1] (setting [6]), in experiment [2] (setting [7]) and in experiment [3] (setting [8]) were 42.7 µM, at least 49.5 µM and 1.09 µM, respectively.
Turning to `COc1ccc(CCNC(=O)NC(=O)c2ccc(Nc3ccccc3)cc2)cc1` [SW208561-1-A], the IC50 was found to be 0.88 µM in experiment [1] (setting [6]), 0.03 µM in experiment [2] (setting [7]), 0.08 µM in experiment [3] (setting [8]) and 0.0763 µM in experiment [3] (setting [9]).
In the case of `O=C(Nc1nc(-c2ccccc2)cs1)c1ccc(C(=O)c2ccccc2)cc1` [SW209018], the IC50 in experiment [1] (setting [10]) was found to be 14.8 µM; in experiment [2] (setting [11]), 49.5 µM; in experiment [3] (setting [12]), 4.73 µM.

For the origin of these results see US9789096B2, “Methods and compositions for selective and targeted cancer therapy” (Board of Regents of the University of Texas System, priority 2013, dated 2017).
